{"source": "paper PMC6704710", "about": "“Preclinical evaluation of 3D185, a novel potent inhibitor of FGFR1/2/3 and CSF-1R, in FGFR-dependent and macrophage-dominant cancer models” (Journal of Experimental & Clinical Cancer Research : CR, 2019)", "test_in_all_cases": "Eurofins kinase panel", "format_in_all_cases": "biochemical", "details_in_all_cases": "read-out: Inhibition rate (%)", "key": {"PTK5(h)": {"biological_target": "T1, PTK5(h) (Homo sapiens, UniProt P42685)", "T1 construct": "purchased Eurofins (KinaseProfiler)"}, "Met(M1268T)(h)": {"biological_target": "T2, Met(M1268T)(h) (Homo sapiens, UniProt P08581, M1250T)", "T2 construct": "purchased Eurofins (KinaseProfiler)", "T2 sequence (P08581 956-1390 M1250T limits assumed)": "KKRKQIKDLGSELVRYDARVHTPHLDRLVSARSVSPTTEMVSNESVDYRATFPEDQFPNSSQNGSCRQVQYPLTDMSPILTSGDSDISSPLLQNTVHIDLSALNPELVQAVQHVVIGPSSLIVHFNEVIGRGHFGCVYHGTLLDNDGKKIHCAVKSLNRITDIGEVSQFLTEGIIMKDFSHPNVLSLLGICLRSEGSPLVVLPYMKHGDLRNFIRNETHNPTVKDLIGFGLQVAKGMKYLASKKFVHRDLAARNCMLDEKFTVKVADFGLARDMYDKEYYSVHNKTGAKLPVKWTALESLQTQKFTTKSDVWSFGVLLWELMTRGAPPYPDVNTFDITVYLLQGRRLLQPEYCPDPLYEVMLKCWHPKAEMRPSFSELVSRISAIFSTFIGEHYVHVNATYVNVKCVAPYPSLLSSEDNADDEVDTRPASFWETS"}, "PRKG2(h)": {"biological_target": "T3, PRKG2(h) (Homo sapiens, UniProt Q13237)", "T3 construct": "purchased Eurofins (KinaseProfiler)", "T3 sequence (Q13237 1-762)": "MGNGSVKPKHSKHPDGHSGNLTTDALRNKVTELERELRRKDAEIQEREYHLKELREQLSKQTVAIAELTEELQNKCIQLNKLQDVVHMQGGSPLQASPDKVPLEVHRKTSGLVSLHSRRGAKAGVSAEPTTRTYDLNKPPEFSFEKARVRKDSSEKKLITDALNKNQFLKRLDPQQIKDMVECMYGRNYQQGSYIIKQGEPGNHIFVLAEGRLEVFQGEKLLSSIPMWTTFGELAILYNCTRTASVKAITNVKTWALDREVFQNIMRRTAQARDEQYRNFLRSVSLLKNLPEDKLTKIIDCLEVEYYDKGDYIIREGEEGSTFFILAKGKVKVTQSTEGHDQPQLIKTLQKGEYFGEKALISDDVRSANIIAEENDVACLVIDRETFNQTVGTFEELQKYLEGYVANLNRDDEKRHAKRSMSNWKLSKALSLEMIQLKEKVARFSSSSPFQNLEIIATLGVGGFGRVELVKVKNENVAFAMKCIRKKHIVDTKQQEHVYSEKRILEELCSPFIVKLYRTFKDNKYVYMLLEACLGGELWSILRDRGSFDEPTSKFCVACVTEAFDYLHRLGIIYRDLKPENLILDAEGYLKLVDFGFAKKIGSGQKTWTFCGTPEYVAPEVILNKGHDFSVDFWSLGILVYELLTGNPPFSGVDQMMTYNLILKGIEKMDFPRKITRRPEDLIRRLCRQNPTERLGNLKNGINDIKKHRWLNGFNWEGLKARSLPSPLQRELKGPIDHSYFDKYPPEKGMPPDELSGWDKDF"}, "MKK6(h)": {"biological_target": "T4, MKK6(h) (Homo sapiens, UniProt P52564)", "T4 construct": "purchased Eurofins (KinaseProfiler)", "T4 sequence (P52564 1-334)": "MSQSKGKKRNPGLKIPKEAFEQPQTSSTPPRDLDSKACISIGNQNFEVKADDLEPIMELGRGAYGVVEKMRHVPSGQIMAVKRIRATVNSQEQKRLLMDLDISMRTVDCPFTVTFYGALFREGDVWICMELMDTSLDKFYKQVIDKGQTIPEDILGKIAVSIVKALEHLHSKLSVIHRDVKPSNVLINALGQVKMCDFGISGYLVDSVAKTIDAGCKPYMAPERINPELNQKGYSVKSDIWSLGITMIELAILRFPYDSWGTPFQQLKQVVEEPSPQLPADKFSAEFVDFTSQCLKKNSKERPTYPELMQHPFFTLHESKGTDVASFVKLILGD"}, "CK1γ3(h)": {"biological_target": "T5, CK1γ3(h) (Homo sapiens, UniProt Q9Y6M4)", "T5 construct": "purchased Eurofins (KinaseProfiler)"}, "TYK2(h)": {"biological_target": "T6, TYK2(h) (Homo sapiens, UniProt P29597)", "T6 construct": "purchased Eurofins (KinaseProfiler)"}, "STK32A(h)": {"biological_target": "T7, STK32A(h) (Homo sapiens, UniProt Q8WU08)", "T7 construct": "purchased Eurofins (KinaseProfiler)"}, "ALK4(h)": {"biological_target": "T8, ALK4(h) (Homo sapiens, UniProt P36896)", "T8 construct": "purchased Eurofins (KinaseProfiler)", "T8 sequence (P36896 24-505)": "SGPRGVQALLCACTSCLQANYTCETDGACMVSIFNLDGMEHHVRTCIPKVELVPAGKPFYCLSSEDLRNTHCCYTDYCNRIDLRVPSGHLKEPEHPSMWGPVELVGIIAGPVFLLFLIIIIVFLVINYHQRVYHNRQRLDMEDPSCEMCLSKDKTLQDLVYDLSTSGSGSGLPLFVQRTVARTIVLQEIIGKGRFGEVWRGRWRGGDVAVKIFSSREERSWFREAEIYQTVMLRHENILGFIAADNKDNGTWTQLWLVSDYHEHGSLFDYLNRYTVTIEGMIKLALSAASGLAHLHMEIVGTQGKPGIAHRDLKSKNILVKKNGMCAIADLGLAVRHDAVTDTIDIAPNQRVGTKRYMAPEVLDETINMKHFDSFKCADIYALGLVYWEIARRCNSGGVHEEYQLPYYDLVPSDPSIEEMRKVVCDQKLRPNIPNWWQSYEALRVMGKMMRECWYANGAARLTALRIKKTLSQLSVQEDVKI"}}, "data": [{"smiles": "COc1cc(OC)c(Cl)c(-c2ccc3c(NC(=O)c4ccc(N5CCNC(C)(C)C5)cc4)n[nH]c3n2)c1Cl", "note": "[3D185]", "values": [{"measurement": "inhibition at 0.01 µM", "setting": "PTK5(h); 10 nM", "result": 19, "unit": "%"}, {"measurement": "inhibition at 0.1 µM", "setting": "PTK5(h); 100 nM", "result": 64, "unit": "%"}, {"measurement": "inhibition at 1 µM", "setting": "PTK5(h); 1000 nM", "result": 91, "unit": "%"}, {"measurement": "inhibition at 0.01 µM", "setting": "Met(M1268T)(h); 10 nM", "result": -12, "unit": "%"}, {"measurement": "inhibition at 0.1 µM", "setting": "Met(M1268T)(h); 100 nM", "result": -11, "unit": "%"}, {"measurement": "inhibition at 1 µM", "setting": "Met(M1268T)(h); 1000 nM", "result": 15, "unit": "%"}, {"measurement": "inhibition at 0.01 µM", "setting": "PRKG2(h); 10 nM", "result": 1, "unit": "%"}, {"measurement": "inhibition at 0.1 µM", "setting": "PRKG2(h); 100 nM", "result": 3, "unit": "%"}, {"measurement": "inhibition at 1 µM", "setting": "PRKG2(h); 1000 nM", "result": 3, "unit": "%"}, {"measurement": "inhibition at 0.01 µM", "setting": "MKK6(h); 10 nM", "result": 11, "unit": "%"}, {"measurement": "inhibition at 0.1 µM", "setting": "MKK6(h); 100 nM", "result": 0, "unit": "%"}, {"measurement": "inhibition at 1 µM", "setting": "MKK6(h); 1000 nM", "result": 2, "unit": "%"}, {"measurement": "inhibition at 0.01 µM", "setting": "CK1γ3(h); 10 nM", "result": 1, "unit": "%"}, {"measurement": "inhibition at 0.1 µM", "setting": "CK1γ3(h); 100 nM", "result": -10, "unit": "%"}, {"measurement": "inhibition at 1 µM", "setting": "CK1γ3(h); 1000 nM", "result": 12, "unit": "%"}, {"measurement": "inhibition at 0.01 µM", "setting": "TYK2(h); 10 nM", "result": 1, "unit": "%"}, {"measurement": "inhibition at 0.1 µM", "setting": "TYK2(h); 100 nM", "result": 14, "unit": "%"}, {"measurement": "inhibition at 1 µM", "setting": "TYK2(h); 1000 nM", "result": 67, "unit": "%"}, {"measurement": "inhibition at 0.01 µM", "setting": "STK32A(h); 10 nM", "result": -5, "unit": "%"}, {"measurement": "inhibition at 0.1 µM", "setting": "STK32A(h); 100 nM", "result": 0, "unit": "%"}, {"measurement": "inhibition at 1 µM", "setting": "STK32A(h); 1000 nM", "result": 2, "unit": "%"}, {"measurement": "inhibition at 0.01 µM", "setting": "ALK4(h); 10 nM", "result": -4, "unit": "%"}, {"measurement": "inhibition at 0.1 µM", "setting": "ALK4(h); 100 nM", "result": -7, "unit": "%"}, {"measurement": "inhibition at 1 µM", "setting": "ALK4(h); 1000 nM", "result": 5, "unit": "%"}]}]}
